The target of assay [1] is T1, PDGFRβ intracellular domain protein (Homo sapiens, UniProt P09619).
T1 construct: 125 ng/ml of PDGFRβ intracellular domain protein (UPSTATE); purchased UPSTATE
The experiment in a line: Determination of platelet-derived growth factor receptor β (PDGFRβ) kinase inhibitory activity (AlphaScreen). Type of assay: biochemical. Here is the method: (§1) A test compound dissolved in dimethyl sulfoxide (DMSO) was diluted with a buffer (50 mM Tris-HCl (pH 7.5), 5 mM MgCl2, 5 mM MnCl2, 2 mM dithiothreitol, 0.01% Tween-20). To this compound solution (5 μL) was added a buffer (10 μL) containing 125 ng/ml of PDGFRβ intracellular domain protein (UPSTATE) and 250 ng/mL of biotin labeled polypeptide biotinyl-poly-Glu:Tyr (4:1) (CIS bio International). At 5 min after mixing kinase enzyme and the compound and biotin labeled polypeptide, to the obtained mixture was added a buffer (10 μL) containing ATP (25 μM), the mixture was allowed to react at 25° C. for 30 min and the reaction was quenched with 25 μL of a stop solution (100 mM EDTA disodium salt, 62.5 mM HEPES buffer (pH 7.4), 250 mM NaCl, 0.1% bovine serum albumin, 10 μg/mL AlphaScreen assay streptavidin donor beads (Streptavidin Donor Beads: PerkinElmer), 10 μg/mL AlphaScreen assay anti-phosphotyrosine recognition antibody PT-66 binding acceptor beads (Anti-phosphotyrosine (P-Tyr-66) Acceptor beads: PerkinElmer)). The reaction solution was allowed to stand at 25° C. for 16 hrs, and the wells were counted using a plate reader Fusion™ (PerkinElmer). The kinase inhibitory rate (%) of the test compound was calculated by the following formula: Inhibitory rate(%)=(1−(count of test compound=blank)÷(control−blank))×100
(§2) The count of the solution reacted without addition of the compound was used as a “control”, and the count of the solution without the compound and ATP was used as a “blank”.
Background: Alpha assays give light when donor and acceptor beads are brought close together.

In assay [2] the test system is Human umbilical vein-derived vascular endothelial cells (HUVEC). The experiment in a line: Vascular endothelial cell growth inhibitory test (VEGF-stimulated HUVEC, XTT). It counts as cell-based. The conditions noted are these: 120 h, 5 days of culture. Here is the method:
To be specific, HUVEC was suspended in a vascular endothelial cell medium containing the aforementioned 5% bovine fetal serum and plated on a 96 well flat bottom plate by 50 μL (3000 cells) each well. After culture overnight, various concentrations of the test substance and 120 ng/mL of vascular endothelial growth factor (VEGF) were dissolved in a vascular endothelial cell medium containing 5% bovine fetal serum and added to each well by 50 μL. After 5 days of culture, a XTT reagent (Wako Pure Chemical Industries, Ltd.) was added to each well by 10 μL, and the mixture was reacted in an incubator at 37° C., 5% carbon dioxide for 2-3 hr. The absorbance at 450 nm was measured by a microtiter plate reader and the cell growth inhibitory activity was determined.
(In general: Tetrazolium assays rely on reduction of a dye to a coloured formazan, in cell work by metabolically active cells.)

The target of assay [3] is T2, VEGFR2 intracellular domain protein (Homo sapiens, UniProt P35968).
T2 construct: made in house; host or cells: SF-21 insect cells, recombinant baculovirus BAC-VEGFR2
T2 sequence (P35968 786-1356 limits assumed): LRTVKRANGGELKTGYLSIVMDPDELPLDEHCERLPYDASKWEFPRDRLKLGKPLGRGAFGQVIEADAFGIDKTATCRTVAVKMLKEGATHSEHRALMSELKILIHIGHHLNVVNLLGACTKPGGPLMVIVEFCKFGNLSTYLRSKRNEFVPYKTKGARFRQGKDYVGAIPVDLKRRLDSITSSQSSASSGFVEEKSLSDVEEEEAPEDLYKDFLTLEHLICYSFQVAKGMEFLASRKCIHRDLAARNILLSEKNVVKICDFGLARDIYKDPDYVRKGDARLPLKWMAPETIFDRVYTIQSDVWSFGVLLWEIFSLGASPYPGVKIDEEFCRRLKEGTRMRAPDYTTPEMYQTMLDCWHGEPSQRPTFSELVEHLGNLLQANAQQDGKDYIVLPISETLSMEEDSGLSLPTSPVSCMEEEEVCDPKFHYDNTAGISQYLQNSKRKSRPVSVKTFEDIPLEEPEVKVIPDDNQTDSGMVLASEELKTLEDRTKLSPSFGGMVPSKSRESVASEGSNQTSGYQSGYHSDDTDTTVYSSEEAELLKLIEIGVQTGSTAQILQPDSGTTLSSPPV
Briefly: Determination of vascular endothelial growth factor receptor 2 (VEGFR2) kinase inhibitory activity (AlphaScreen). Type of assay: biochemical. The conditions noted are these: read-out: VEGFR2 kinase inhibitory rate. Here is the method: Human vascular endothelial growth factor receptor 2 (hereinafter to be referred to as VEGFR2) gene was cloned by PCR using cDNA Libraries Human Placenta (Clontech) as a template. The primer used for PCR was prepared from base sequence (Genbank Accession AF035121) information of VEGFR2 gene by adding a base sequence encoding flag peptide and a recognition sequence of the restriction enzyme to a base sequence (2671-4374 of Genbank Accession AF035121) encoding the VEGFR2 intracellular domain region, so that the protein contains an N-terminal Flag tag. The primer base sequence is shown below.
SF-21 cells were sown at 1×10^6 cells/mL to Sf-900II SFM medium (1 L, Invitrogen) containing 10% fetal bovine serum (trace), 50 mg/L Gentamicin (Invitrogen) and 0.1% Pluronic F-68 (Invitrogen), and shaking culture was performed using a 2 L volume Erlenmeyer flask at 27° C., 100 rpm. After culturing for 24 hrs, recombinant baculovirus BAC-VEGFR2 (13.4 mL) was added to the mixture, and the mixture was further cultured for 3 days. The culture medium was centrifuged at 2,000 rpm for 5 min to give virus-infected cells. The infected cells were washed with a phosphate buffered saline (Invitrogen), centrifuged under the same conditions, and the cells were preserved at −80° C. The cryopreserved cells were thawed in ice, suspended in buffer A (50 mM Tris buffer (30 mL, pH 7.4) containing 20% glycerol, 0.15 M NaCl) supplemented with Complete Protease Inhibitor (Boehringer), and ruptured 3 times with a Polytron homogenizer (Kinematica) at 20,000 rpm for 30 sec. The ruptured medium was clarified by centrifugation at 40,000 rpm for 30 min and filtered with a 0.45 μm filter. The filtrate was passed through a column packed with Anti-FLAG M2 Affinity Gel (4 mL, Sigma) at a flow rate of about 0.5 mL/min. The column was washed with buffer A, and eluted with buffer A containing 100 μg/mL of FLAG peptide. The eluate was concentrated with Vivaspin 20 (Vivascience) having a molecular weight cut off of 30K. The buffer of this concentrate was exchanged using NAP™ 25 column (Amersham Bioscience) equilibrated with buffer A. The fractions containing intracellular domain protein of VEGFR2 were collected, glycerol was added to the final concentration of 50% and cryopreserved at −80° C.
A test compound dissolved in dimethyl sulfoxide (DMSO) was diluted with a buffer (50 mM Tris-HCl (pH 7.5), 5 mM MgCl2, 5 mM MnCl2, 2 mM dithiothreitol, 0.01% Tween-20). To this compound solution (5 μL) was added a buffer (10 μL) containing 50 ng/mL of VEGFR2 intracellular domain protein and 250 ng/mL of biotin labeled polypeptide biotinyl-poly-Glu:Tyr (4:1) (CIS bio International). To the obtained mixture was added a buffer (10 μL) containing ATP (25 μM), the mixture was allowed to react at 25° C. for 5 min and the reaction was quenched with 25 μL of a stop solution (100 mM EDTA disodium salt, 62.5 mM HEPES buffer (pH 7.4), 250 mM NaCl, 0.1% bovine serum albumin, 10 μg/mL AlphaScreen assay streptavidin donor beads (Streptavidin Donor beads: PerkinElmer), 10 μg/mL AlphaScreen assay anti-phosphotyrosine recognition antibody PY-100 binding acceptor beads (Anti-phosphotyrosine (P-Tyr-100) Acceptor beads: PerkinElmer)). The reaction solution was allowed to stand at 25° C. for 16 hrs, and the wells were counted using a plate reader Fusion™ (PerkinElmer). The kinase inhibitory rate (%) of the test compound was calculated by the following formula: Inhibitory rate(%)=(1−(count of test compound−blank)÷(control−blank))×100

Assay [4] addresses T3, PDGFRα intracellular domain protein (Homo sapiens, UniProt P16234).
T3 construct: 125 ng/ml of PDGFRα intracellular domain protein (UPSTATE); purchased UPSTATE
The experiment in a line: Determination of platelet-derived growth factor receptor α (PDGFRα) kinase inhibitory activity (AlphaScreen). Type of assay: biochemical. The method, then: as §1, with “PDGFRα” for “PDGFRβ”, “beads:” for “Beads:”, “compound−blank)÷(control−blank))×100” for “compound=blank)÷(control−blank))×100”
as §2

Usually IC50 stands for the concentration needed to halve the response being measured. A lower IC50 goes with inhibition by little substance.

T3 sequence (P16234 550-1089 limits assumed): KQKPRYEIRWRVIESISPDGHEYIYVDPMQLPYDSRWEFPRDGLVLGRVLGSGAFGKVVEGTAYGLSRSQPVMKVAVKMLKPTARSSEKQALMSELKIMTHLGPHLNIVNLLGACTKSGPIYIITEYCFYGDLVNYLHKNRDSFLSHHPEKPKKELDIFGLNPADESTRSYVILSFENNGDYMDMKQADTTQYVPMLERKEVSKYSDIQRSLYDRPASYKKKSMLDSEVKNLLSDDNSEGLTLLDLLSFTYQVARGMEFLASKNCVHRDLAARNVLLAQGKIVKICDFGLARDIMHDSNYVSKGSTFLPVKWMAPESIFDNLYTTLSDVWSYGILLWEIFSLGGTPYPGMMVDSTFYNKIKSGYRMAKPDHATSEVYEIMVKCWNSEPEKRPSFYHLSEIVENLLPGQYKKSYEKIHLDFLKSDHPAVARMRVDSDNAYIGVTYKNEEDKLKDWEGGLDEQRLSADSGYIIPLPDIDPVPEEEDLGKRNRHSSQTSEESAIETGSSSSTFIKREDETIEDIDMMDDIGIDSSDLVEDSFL
T1 sequence (P09619 554-1106 limits assumed): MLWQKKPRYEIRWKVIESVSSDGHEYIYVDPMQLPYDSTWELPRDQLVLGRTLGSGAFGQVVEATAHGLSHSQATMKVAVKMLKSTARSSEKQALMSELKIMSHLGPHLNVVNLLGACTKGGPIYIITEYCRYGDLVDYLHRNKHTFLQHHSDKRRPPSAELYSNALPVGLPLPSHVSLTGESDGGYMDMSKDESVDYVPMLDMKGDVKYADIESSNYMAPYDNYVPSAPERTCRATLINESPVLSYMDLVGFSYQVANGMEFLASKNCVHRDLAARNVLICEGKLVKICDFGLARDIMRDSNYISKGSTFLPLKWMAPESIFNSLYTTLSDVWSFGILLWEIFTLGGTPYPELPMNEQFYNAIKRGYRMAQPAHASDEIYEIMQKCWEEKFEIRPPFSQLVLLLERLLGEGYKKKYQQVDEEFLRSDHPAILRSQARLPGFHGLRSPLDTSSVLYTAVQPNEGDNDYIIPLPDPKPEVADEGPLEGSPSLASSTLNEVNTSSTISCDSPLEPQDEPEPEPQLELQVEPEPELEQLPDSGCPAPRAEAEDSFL

In the case of `Cc1nc(C)c(C(=O)Nc2cccc(Oc3ccc4nc(NC(=O)C5CC5)cn4n3)c2)s1` [Example 114, N-[3-({2-[(cyclopropylcarbonyl)amino]imidazo[1,2-b]pyridazin-6-yl}oxy)phenyl]-2,4-dimethyl-1,3-thiazole-5-carboxamide], the 50% inhibitory concentration (IC50) in assay [1] and in assay [2] was at most 500 nM throughout. Besides, the inhibition at 1 µM in assay [3] was at least 90%.

Compound `Cc1cc(C(=O)Nc2cc(Oc3ccc4nc(NC(=O)C5CC5)cn4n3)ccc2C)n(C)n1` [Example 111, N-[5-({2-[(cyclopropylcarbonyl)amino]imidazo[1,2-b]pyridazin-6-yl}oxy)-2-methylphenyl]-1,3-dimethyl-1H-pyrazole-5-carboxamide] registered an IC50 in assay [2] of at most 500 nM. For the same compound, the inhibition at 1 µM in assay [3] is at least 90%.

Take `Cc1ccc(Oc2ccc3nc(NC(=O)C4CC4)cn3n2)cc1N` [Example 108, N-[6-(3-amino-4-methylphenoxy)imidazo[1,2-b]pyridazin-2-yl]cyclopropanecarboxamide]: the IC50 in assay [2] was at most 500 nM. Further, the inhibition at 1 µM in assay [3] was at least 90%.

For `CCc1nc(C)c(C(=O)Nc2cc(Oc3ccc4nc(NC(=O)C5CC5)cn4n3)ccc2F)o1` [Example 314, N-[5-({2-[(cyclopropylcarbonyl)amino]imidazo[1,2-b]pyridazin-6-yl}oxy)-2-fluorophenyl]-2-ethyl-4-methyl-1,3-oxazole-5-carboxamide], the IC50 in assay [1], in assay [4] and in assay [2] was at most 500 nM in each case. In addition, the inhibition at 1 µM in assay [3] is at least 90%.

As for `Cc1ccc(Oc2ccc3nc(NC(=O)C4CC4)cn3n2)cc1NC(=O)c1scnc1C` [Example 298, N-[5-({2-[(cyclopropylcarbonyl)amino]imidazo[1,2-b]pyridazin-6-yl}oxy)-2-methylphenyl]-4-methyl-1,3-thiazole-5-carboxamide], the IC50 in assay [1], in assay [4] and in assay [2] was at most 500 nM each time. The inhibition at 1 µM in assay [3] is at least 90%.

In the case of `COCC(=O)Nc1cn2nc(Oc3cccc(NC(=O)c4cc(C)nn4C)c3)ccc2n1` [Example 127, N-[3-({2-[(methoxyacetyl)amino]imidazo[1,2-b]pyridazin-6-yl}oxy)phenyl]-1,3-dimethyl-1H-pyrazole-5-carboxamide], the IC50 in assay [1] and in assay [2] was at most 500 nM each time. Besides, the inhibition at 1 µM in assay [3] is at least 90%.

`Cc1cc(C(=O)Nc2cccc(Oc3ccc4nc(NC(=O)CN(C)C)cn4n3)c2)n(C)n1` [Example 149, N-[3-({2-[(N,N-dimethylglycyl)amino]imidazo[1,2-b]pyridazin-6-yl}oxy)phenyl]-1,3-dimethyl-1H-pyrazole-5-carboxamide]: the IC50 in assay [1] and in assay [2] was at most 500 nM each time. Also, the inhibition at 1 µM in assay [3] was at least 90%.

In the case of `CCNC(=O)Nc1cccc(Oc2ccc3nc(NC(=O)C4CC4)cn3n2)c1` [Example 103, N-[6-(3-{[(ethylamino)carbonyl]amino}phenoxy)imidazo[1,2-b]pyridazin-2-yl]cyclopropanecarboxamide], the IC50 in assay [1] and in assay [2] was at most 500 nM in each case. In addition, in assay [3], the inhibition at 1 µM is at least 90%.

As to `Cc1cc(C(=O)Nc2cccc(Sc3ccc4nc(NC(=O)C5CC5)cn4n3)c2)n(C)n1` [Example 150, N-[3-({2-[(cyclopropylcarbonyl)amino]imidazo[1,2-b]pyridazin-6-yl}sulfanyl)phenyl]-1,3-dimethyl-1H-pyrazole-5-carboxamide], the IC50 in assay [1] and in assay [2] was at most 500 nM in each case. For the same compound, the inhibition at 1 µM in assay [3] is at least 90%.

Turning to `CCn1cc(C(=O)Nc2cc(Oc3ccc4nc(NC(=O)C5CC5)cn4n3)ccc2Cl)c(C)n1` [Example 254, N-[2-chloro-5-({2-[(cyclopropylcarbonyl)amino]imidazo[1,2-b]pyridazin-6-yl}oxy)phenyl]-1-ethyl-3-methyl-1H-pyrazole-4-carboxamide], the 50% inhibitory concentration (IC50) in assay [1] and in assay [2] was at most 500 nM throughout. The inhibition at 1 µM in assay [3] was at least 90%.

On to `Cc1nc(C(=O)Nc2cccc(Oc3ccc4nc(NC(=O)C5CC5)cn4n3)c2)c(C)o1` [Example 117, N-[3-({2-[(cyclopropylcarbonyl)amino]imidazo[1,2-b]pyridazin-6-yl}oxy)phenyl]-2,5-dimethyl-1,3-oxazole-4-carboxamide], for which the IC50 in assay [1] and in assay [2] was at most 500 nM throughout. Also, in assay [3], the inhibition at 1 µM is at least 90%.

Consider `O=C(Nc1cn2nc(Oc3ccc4cc[nH]c4c3)ccc2n1)C1CC1` [Example 95, N-[6-(1H-indol-6-yloxy)imidazo[1,2-b]pyridazin-2-yl]cyclopropanecarboxamide], for which the IC50 in assay [4] and in assay [2] was at most 500 nM in each case. In addition, the inhibition at 1 µM in assay [3] was at least 90%.

(Values after patent US8034812B2, “Imidazopyridazine derivative having kinase inhibitory activity and pharmaceutical agent thereof” (Takeda Pharmaceutical Company Limited, priority 2006, dated 2011).)
